{"source": "patent US10899631B2", "about": "“Ferrous modified selenium sol for inhibiting accumulation of cadmium and arsenic in rice and preparation method and application thereof” (priority 2018, dated 2021)", "key": {"OsHMA3": {"system": "OsHMA3", "assay": "Expression level of OsHMA3 in rice suspension cells, real-time fluorescence quantitative PCR", "type": "cell-based, Oryza sativa L. Japonica", "details": "24 h with treatment, then 10 μM cadmium and 5 μM arsenic for 24 h, CK 1.47 ± 0.07", "description": "(§1) Method of culturing rice suspension cells (Oryza sativa L. Japonica): Selecting mature and plump seeds of Japanese rice Nipponbare, and disinfecting them with 70% alcohol by volume or 30% sodium hypochlorite by mass; evenly sowing the seeds with tweezers onto a plate containing a solid medium, and then placing the plate into an incubator to culture in the dark at a culture temperature of 25° C.; after a period of time, removing hypocotyls from the seeds with tweezers, and culturing the hypocotyls in another solid medium to obtain callus; crushing 10 g of the callus, adding it to a triangular flask containing a liquid medium (50 mL), and culturing in a shaker at 28° C. for about one month to obtain rice suspension cells.\n(§2) The basic components of the above solid medium and liquid medium are consistent, both being an MS medium. The solid medium was prepared by adding agar to the liquid medium (adding […] of the liquid medium, and then heating, melting, cooling and solidifying to obtain the solid medium). The basic formula was as follows: […]\n(§3) In order to study the effect of the ferrous modified selenium sol on the expression level of the cadmium transporter in rice suspension cells, the following treatments were performed on the rice suspension cells: […]"}, "rice [1]": {"system": "rice", "assay": "Field test of foliar barriers: content of inorganic arsenic in rice", "type": "in vivo, rice variety Huang-Li-Zhan", "details": "sprayed once at tillering stage at 100 L/mu (T1, T4, T5); for content of inorganic arsenic in rice: control 0.280 mg/kg", "source_text": "(§4) The surface soil (0-30 cm) of a rice field polluted by heavy metals located in Boluo Town, Huizhou City, Guangdong Province was collected and analyzed from April to July of 2016. […] The tested rice variety was Huang-Li-Zhan.\n(§5) There were the following six treatments in the experiment: (1) Blank control (CK): An equal amount of clear water was sprayed. (2) Treatment 1 (T1): The silica sol foliar barrier (prepared in Example 3) was sprayed once on the leaves at the tillering stage of rice when the foliar barrier was diluted 50 times and sprayed at 100 L/mu. (3) Treatment 2 (T2): The selenium sol foliar barrier (prepared in Example 3) was sprayed twice on the leaves, the first at the tillering stage of rice when the foliar barrier was diluted 100 times and sprayed at 50 L/mu, the second at the heading stage of rice when the foliar barrier was diluted 100 times and sprayed at 150 L/mu. (4) Treatment 3 (T3): The selenium sol foliar barrier (prepared in Example 3) was sprayed three times on the leaves, the first at the tillering stage of rice when the foliar barrier was diluted 100 times and sprayed at 80 L/mu, the second at the heading stage of rice when the foliar barrier was diluted 100 times and sprayed at 120 L/mu, the third at the filling stage of rice when the foliar barrier was diluted 250 times and sprayed at 150 L/mu. (5) Treatment 4 (T4): The ferrous sulfate solution containing the iron element at a mass-volume ratio of 0.1% was sprayed on the leaves at the tillering stage of rice at 100 L/mu. (6) Treatment 5 (T5): The sodium selenite solution containing the selenium element at a mass-volume ratio of 0.05% was sprayed on the leaves at the tillering stage of rice at 100 L/mu.\n(§6) It was selected that the above foliar preparations were sprayed at 4-6 pm on a sunny day; when sprayed, the atomized droplets were controlled to be smaller than 1000 microns, and sprayed uniformly on both sides of the rice leaves. Each treatment was repeated four times, randomly arranged. There were totally 36 test plots, each plot having an area of 5×6=30 m^2 to ensure independent drainage and irrigation."}, "OsLCT1": {"system": "OsLCT1", "assay": "Expression level of OsLCT1 in rice suspension cells, real-time fluorescence quantitative PCR", "type": "cell-based, Oryza sativa L. Japonica", "details": "24 h with treatment, then 10 μM cadmium and 5 μM arsenic for 24 h, CK 4.62 ± 0.10", "description": "as §1, §2, §3"}, "rice suspension cells [2]": {"system": "rice suspension cells", "assay": "Content of arsenic in rice suspension cells", "type": "cell-based, Oryza sativa L. Japonica", "details": "for As content: 10 μM cadmium and 5 μM arsenic for 24 h, CK 7.12 ± 0.82; for As reduction ratio (inhibition rate of arsenic): compared with the blank control", "description": "as §1, §2\n(§7) Ferrous sulfate, sodium selenite and the ferrous modified selenium sol prepared in Examples 1, 2 and 3 were added to a rice suspension cell system, respectively, so that in the final system the ferrous sulfate solution containing the iron element at a mass-volume ratio of 0.05% (T1), the sodium selenite solution containing the selenium element at a mass-volume ratio of 0.025% (T2), and the ferrous modified selenium sol prepared in Example 1 (T3) were diluted 50 times, the ferrous modified selenium sol prepared in Example 2 was diluted 150 times (T4), and the ferrous modified selenium sol prepared in Example 3 was diluted 100 times (T5). The rice suspension cells without any treatment were used as a control (CK). After 24 h of culture, cadmium and arsenic were added to the culture system, so that the final concentrations of cadmium and arsenic were 10 μM and 5 μM, respectively. With the temperature kept constant at 28° C. in a shaker, the rice cells of each treatment were continuously cultured for 24 h and then collected. RNA was extracted from the rice cells and reversely transcribed, and the expression levels of the genes OsNramp5, OsHMA3, OsLCT1, OsLsi1 and OsLsi2 were detected.\n(§8) The rice cells obtained by the above respective treatments were collected and washed centrifugally with ultrapure water, and then the contents of cadmium and arsenic in the cells were measured."}, "rice suspension cells [3]": {"system": "rice suspension cells", "assay": "Content of cadmium in rice suspension cells", "type": "cell-based, Oryza sativa L. Japonica", "details": "for Cd Content: 10 μM cadmium and 5 μM arsenic for 24 h, CK 12.8 ± 0.9; for Cd reduction ratio (inhibition rate of cadmium): compared with the blank control", "description": "as §1, §2, §7, §8"}, "OsLsi1": {"system": "OsLsi1", "assay": "Expression level of OsLsi1 in rice suspension cells, real-time fluorescence quantitative PCR", "type": "cell-based, Oryza sativa L. Japonica", "details": "24 h with treatment, then 10 μM cadmium and 5 μM arsenic for 24 h, CK 4.74 ± 0.11", "description": "as §1, §2, §3"}, "OsLsi2": {"system": "OsLsi2", "assay": "Expression level of OsLsi2 in rice suspension cells, real-time fluorescence quantitative PCR", "type": "cell-based, Oryza sativa L. Japonica", "details": "24 h with treatment, then 10 μM cadmium and 5 μM arsenic for 24 h, CK 4.91 ± 0.21", "description": "as §1, §2, §3"}, "OsNramp5": {"system": "OsNramp5", "assay": "Expression level of OsNramp5 in rice suspension cells, real-time fluorescence quantitative PCR", "type": "cell-based, Oryza sativa L. Japonica", "details": "24 h with treatment, then 10 μM cadmium and 5 μM arsenic for 24 h, CK 4.84 ± 0.15", "description": "as §1, §2, §3"}, "rice [4]": {"system": "rice", "type": "in vivo, rice variety Huang-Li-Zhan", "source_text": "as §4, §5, §6"}, "rice [5]": {"system": "rice", "assay": "Field test of foliar barriers: content of cadmium in rice", "type": "in vivo, rice variety Huang-Li-Zhan", "details": "for content of cadmium in rice decreased by, compared with the control (CK) / content of cadmium in rice: sprayed once at tillering stage at 100 L/mu (T1, T4, T5); for content of cadmium in rice: control 0.308 mg/kg", "source_text": "as §4, §5, §6"}}, "note": "Read-outs that look alike come from different tables or passages of the source."}
{"smiles": "O=S(=O)([O-])[O-].[Fe+2]", "note": "[ferrous sulfate]", "values": [{"measurement": "OsHMA3 expression", "setting": "OsHMA3", "value": "2.53 ± 0.12"}, {"measurement": "content of inorganic arsenic in rice decreased by, compared with the control (CK)", "setting": "rice [1]", "value": 18.7, "unit": "%"}, {"measurement": "content of inorganic arsenic in rice", "setting": "rice [1]", "value": 0.255, "unit": "mg/kg"}, {"measurement": "OsLCT1 expression", "setting": "OsLCT1", "value": "3.82 ± 0.11"}, {"measurement": "As content", "setting": "rice suspension cells [2]", "value": "6.89 ± 0.71", "unit": "µg/g"}, {"measurement": "As reduction ratio (inhibition rate of arsenic)", "setting": "rice suspension cells [2]", "value": 3.2, "unit": "%"}, {"measurement": "Cd Content", "setting": "rice suspension cells [3]", "value": "8.3 ± 0.6", "unit": "µg/g"}, {"measurement": "Cd reduction ratio (inhibition rate of cadmium)", "setting": "rice suspension cells [3]", "value": 35.2, "unit": "%"}, {"measurement": "OsLsi1 expression", "setting": "OsLsi1", "value": "4.15 ± 0.16"}, {"measurement": "OsLsi2 expression", "setting": "OsLsi2", "value": "4.78 ± 0.27"}, {"measurement": "OsNramp5 expression", "setting": "OsNramp5", "value": "3.15 ± 0.16"}, {"measurement": "Dry production per mu", "setting": "rice [4]; in vivo", "value": 410, "unit": "kg"}, {"measurement": "Plot average yield", "setting": "rice [4]; in vivo", "value": 30.04, "unit": "abc kg"}, {"measurement": "Plot yield I", "setting": "rice [4]; in vivo", "value": 29.4, "unit": "kg"}, {"measurement": "Plot yield II", "setting": "rice [4]; in vivo", "value": 30.75, "unit": "kg"}, {"measurement": "Plot yield III", "setting": "rice [4]; in vivo", "value": 30.3, "unit": "kg"}, {"measurement": "Wet production per mu", "setting": "rice [4]; in vivo", "value": 668, "unit": "kg"}, {"measurement": "Yield increase ratio", "setting": "rice [4]; in vivo", "value": 6.4, "unit": "%"}, {"measurement": "Plot yield IV", "setting": "rice [4]; in vivo, iv", "value": 29.7, "unit": "kg"}, {"measurement": "cadmium and inorganic arsenic content of the treated rice against the food hygiene standard", "setting": "rice [5]; sol in regimens T1, T2 and T3, ferrous sulfate T4, sodium selenite T5", "value": "still exceeded the food hygiene standard"}, {"measurement": "content of cadmium in rice decreased by, compared with the control (CK)", "setting": "rice [5]", "value": 18.8, "unit": "%"}, {"measurement": "content of cadmium in rice", "setting": "rice [5]", "value": 0.250, "unit": "mg/kg"}]}
{"smiles": "O=[Se](O)O", "note": "[sodium selenite]", "values": [{"measurement": "OsHMA3 expression", "setting": "OsHMA3", "value": "2.15 ± 0.14"}, {"measurement": "content of inorganic arsenic in rice decreased by, compared with the control (CK)", "setting": "rice [1]", "value": 16.8, "unit": "%"}, {"measurement": "content of inorganic arsenic in rice", "setting": "rice [1]", "value": 0.232, "unit": "mg/kg"}, {"measurement": "OsLCT1 expression", "setting": "OsLCT1", "value": "4.42 ± 0.14"}, {"measurement": "As content", "setting": "rice suspension cells [2]", "value": "4.96 ± 0.53", "unit": "µg/g"}, {"measurement": "As reduction ratio (inhibition rate of arsenic)", "setting": "rice suspension cells [2]", "value": 30.3, "unit": "%"}, {"measurement": "Cd Content", "setting": "rice suspension cells [3]", "value": "9.1 ± 1.2", "unit": "µg/g"}, {"measurement": "Cd reduction ratio (inhibition rate of cadmium)", "setting": "rice suspension cells [3]", "value": 28.9, "unit": "%"}, {"measurement": "OsLsi1 expression", "setting": "OsLsi1", "value": "3.11 ± 0.17"}, {"measurement": "OsLsi2 expression", "setting": "OsLsi2", "value": "3.07 ± 0.11"}, {"measurement": "OsNramp5 expression", "setting": "OsNramp5", "value": "3.85 ± 0.21"}, {"measurement": "yield of rice decreased by", "setting": "rice [4]; field, T5: sprayed once at tillering stage at 100 L/mu, 0.05% Se, compared with CK", "value": 3.8, "unit": "%"}, {"measurement": "Plot average yield", "setting": "rice [4]; field, sprayed once at tillering stage at 100 L/mu (T1, T4, T5), CK 28.05", "value": 26.95, "unit": "c kg"}, {"measurement": "Dry production per mu", "setting": "rice [4]; field, sprayed once at tillering stage at 100 L/mu (T1, T4, T5), CK 386", "value": 371, "unit": "kg"}, {"measurement": "Wet production per mu", "setting": "rice [4]; field, sprayed once at tillering stage at 100 L/mu (T1, T4, T5), CK 623", "value": 599, "unit": "kg"}, {"measurement": "Yield increase ratio", "setting": "rice [4]; field, sprayed once at tillering stage at 100 L/mu (T1, T4, T5), compared with CK", "value": "−3.8", "unit": "%"}, {"measurement": "Plot yield II", "setting": "rice [4]; field, sprayed once at tillering stage at 100 L/mu (T1, T4, T5), plot II, CK 30.15", "value": 27.15, "unit": "kg"}, {"measurement": "Plot yield III", "setting": "rice [4]; field, sprayed once at tillering stage at 100 L/mu (T1, T4, T5), plot III, CK 28.95", "value": 29.12, "unit": "kg"}, {"measurement": "Plot yield IV", "setting": "rice [4]; field, sprayed once at tillering stage at 100 L/mu (T1, T4, T5), plot IV, CK 24.3", "value": 26.13, "unit": "kg"}, {"measurement": "Plot yield I", "setting": "rice [4]; field, sprayed once on leaves at tillering stage at 100 L/mu (T1: sol diluted 50 times; T4: ferrous sulfate 0.1% Fe; T5: sodium selenite 0.05% Se), plot I, 30 m^2, CK 28.65", "value": 25.41, "unit": "kg"}, {"measurement": "content of cadmium in rice decreased by, compared with the control (CK)", "setting": "rice [5]", "value": 10.1, "unit": "%"}, {"measurement": "content of cadmium in rice", "setting": "rice [5]", "value": 0.276, "unit": "mg/kg"}]}
